Experimental data as given in patent publication EP1992346A1, “PHARMACEUTICAL COMPOSITIONS CONTAINING COMBINED PLATELET AGGREGATION INHIBITING SUBSTANCES FOR USE IN THE TREATMENT AND PREVENTION OF ISCHEMIC VASCULAR EVENTS” (WORLD-TRADE IMPORT-EXPORT, WTIE, A.G., priority 2005, dated 2007).

Legend:
[1] = cited from earlier work
[2] = test system: U46619-induced platelet aggregation; settings: double blind, 10-day study, 20 healthy volunteers; plasma rich in platelets
Protocol: It was a double blind, 10-day duration study that was performed in 20 healthy volunteers with an age ranging from 26 to 40 years old. The platelet activation was measured by changes in light transmission of plasma rich in platelets stimulated by a synthetic analogue of TXA2, U46619.

[3] = cited from earlier work; remark: listed apart in the source
platelet aggregation = settings: cited from earlier work
[4] = radioactively marked Clopidogrel, within a five-day period

SMILES: COC(=O)[C@H](c1ccccc1Cl)N1CCc2sccc2C1 [Clopidogrel]
- time to maximum plasmatic concentrations of primary metabolite ([1]; after a dose of 75 mg): one
- plasmatic half-life ([1]; in vivo): about 8 hours
- inactive primary metabolite (carboxylic acid) as share of metabolites circulating in the plasma ([1]; oral): about 85%
- absorption ([1]; oral, not significantly affected by food): 50%
- eliminated through feces [1, 4]: 46%
- eliminated through urine [1, 4]: About 50%
- plasmatic concentrations of the unaltered drug ([1]; two hours after an oral dose): no longer detectable
- U46619 stimulated platelet aggregation [2]: significantly inhibited
- reversibly bound to plasmatic proteins [3]: 98%
- time for platelet aggregation and bleeding-time to return to basal level (platelet aggregation; after the treatment discontinuation): five
- platelet aggregation inhibited (platelet aggregation; in balanced conditions, 75 mg per day): 40-60%
- activity in vitro (platelet aggregation; in vitro, requires hepatic activation): inactive in vitro
- time to maximum inhibition of platelet aggregation (platelet aggregation; iterative doses of 75 mg per day): 3 to 7 days
- inhibition of platelet aggregation (platelet aggregation; two hours after a single oral dose): already observed an inhibition of platelet aggregation
